According to patent US11045456B2, “Compositions and methods for treating COPD and other inflammatory conditions” (Georgia State University Research Foundation, Inc., priority 2015, dated 2021):
Numbered stars: 1 amine (or outer) side, 2 acyl side, 3 side chain; on linkers, the order of the positions; unused ones are H or OH. Bridge positions count the residues as written; N and C are the ends. Square brackets hold non-standard residues; d marks the D form. Peptide text beside a SMILES is read from it. I, II: the chains in the order shown. Actinocin(9to1) = Cc1c2oc3c(C)ccc(C(=O)[*:1])c3nc-2c(C(=O)[*:2])c(N)c1=O; NMeV = CN[C@H](C(=O)O)C(C)C; Sar = CNCC(=O)O

Tests used:
[1] = tested on: p65; assay: p65 phosphorylation by Phos-tag PAGE in BEAS-2B cells; assay type: cell-based, human
Description: Phos-tag PAGE. Recombinant p65 proteins or nuclear extracts recovered without EDTA/EGTA were separated by SDS-PAGE, with 6% gels containing 50 μM Mn^2+-Phos-tag Acrylamide and transferred to PVDF membrane according to the manufacture's instructions (Kinoshita et al., Mol. Cell. Proteomics 5(4):749-757, 2006.

[2] = tested on: NTHi-induced inflammation; assay: NTHi-induced inflammation in mouse lung (proinflammatory mediator mRNA, H&E staining); assay type: in vivo; settings: DEX 2 mg/kg i.p. and Rof 5 mg/kg i.p. 2 h before NTHi 5×10^7 CFU/lung
Description: Mice and animal experiments. For NTHi-induced inflammation in C57BL/6J mice (7 weeks old), anaesthetized mice were intratracheally inoculated with NTHi at a concentration of 5×10^7 CFU per mouse and saline was inoculated as control.
. We pre-treated BEAS-2B cells with Rof (1 μM), FSK (1 μM), Iso (0.1 μM) and DEX (10 nM) for 1 h followed by 1.5 h stimulation with NTHi, and PDE4B mRNA expression was analyzed by Q-PCR (FIGS. 7A and 7B). We also pre-treated BEAS-2B cells with Rof (0.1 μM) and DEX (6.5 nM) for 1 h followed by 1.5 h stimulation with NTHi, and PDE4B2 mRNA expression was analyzed by semi-quantitative RT-PCR (FIG. 7C). To assess protein expression, BEAS-2B cells were pre-treated with Rof (0.1 μM) and DEX (100 nM) for 1 h followed by a 5 h stimulation with NTHi, and PDE4B protein expression was analyzed by immunoblot (FIG. 7D). Each target data were normalized with NTHi treated. Data are mean±SD (n=3); *p<0.05 vs NTHi; ^†p<0.05 vs Rof+NTHi. […] After 5 h, mRNA expression in lung tissues were analyzed by Q-PCR for assessing the expression of PDE4B or various proinflammatory mediators and lung tissues were stained against PDE4B (Magnification ×200, Scale bar, 100 μm) (FIG. 7F) and assessed for inflammation using H&E staining (FIG. 7H).

[3] = tested on: PDE4B; assay: PDE4B mRNA expression in lung tissues of NTHi-inoculated mice; settings: mouse lung; DEX 2 mg/kg i.p. and Rof 5 mg/kg i.p. 2 h before NTHi; after 5 h
[4] = tested on: PDE4B2; assay: PDE4B2 expression (RT-PCR) in BEAS-2B cells; assay type: cell-based, human; settings: for NTHi-induced PDE4B2 expression (synergy with NTHi): cAMP elevator / PKA or Epac activator with NTHi
Description: (§1) Bacterial strains and culture condition. Clinical isolates of NTHi strain 12 were used in this study (Ishinaga et al., EMBO J., 26(4):1150-1162, 2007). Bacteria were grown on chocolate agar plates at 37° C. in an atmosphere of 5% CO2 overnight and subsequently inoculated in brain heart infusion (BHI) broth supplemented with 3.5 μg/mL NAD and hemoglobin (BD Biosciences). After overnight incubation, the bacteria were subcultured into fresh broth and the log phase bacteria, monitored by measurement of optical density (OD) value, were washed and suspended in DMEM for in vitro cell experiments and in isotonic saline for in vivo animal experiments. For all in vitro experiments except the dose dependent experiment, NTHi was treated at multiplicity of infection (MOI) of 50.
(§2) Cell culture. All media described below were supplemented with 10% fetal bovine serum (Sigma-Aldrich). Human bronchial epithelial BEAS-2B cells were maintained in RPMI medium (Life Technologies) (ATCC® CRL-9609™). Human primary bronchial epithelial NHBE (Lonza) cells were maintained in bronchial epithelial growth media (BEGM) supplemented with BEGM SingleQuots (Jono et al., J. Biol. Chem. 277(47):45547-45557, 2002). BEAS-2B cells stably expressing human PDE4B2 (PDE4B2-stable cells) were obtained by plasmid transfection following Geneticin selection (300 μg/mL). Cells were cultured in a humidified atmosphere of 5% CO2 at 37° C.
Plasmids, transfections and luciferase assay. The expression plasmids, constitutively active forms of IKKα (IKKα-CA, S176E/S180E) and IKKβ (IKKβ-CA, S177E/S181E) and a dominant negative form of IκBα (IκBα-DN, S32A/S36A) were previously described (Shuto et al., Proc. Natl. Acad. Sci. USA, 98(15):8774-8779, 2001; Ishinaga et al., supra). Luciferase reporter construct of NF-κB (pGL4.32) was purchased from Promega. Human PDE4B2, p65 (RelA) and PKA-Cβ1/2 cDNA sequences were generated and inserted into the BamHI and HindIII sites of the pcDNA3.1/mycHis(−) vector. Mutant p65 and PDE4B2-D392A were generated by using PRIMESTAR® Max (Takara). Empty vector was used as a control and was also added where necessary to ensure an equivalent amount of input DNA. All transient transfections were carried out in triplicate using TRANSIT-LT1® reagent (Minis) following the manufacturer's instruction.

[5] = tested on: PDE4B; assay: PDE4B mRNA expression (Q-PCR) in BEAS-2B cells stimulated with NTHi; assay type: cell-based, human; settings: BEAS-2B; ActD 5 ng/ml and Rof 0.1 μM 1 hour, then 1.5-hour NTHi
Description: as §1, §2

[6] = BEAS-2B cells, inhibitor treatment

For COc1cccc(-c2cc(=O)c3ccccc3o2)c1N [PD98059], the “phosphorylation of p65 induced by overexpression of PKA-Cβ1 (inhibition)” value (“phosphorylation … of PKA-Cβ1 (inhibition)” for short) [1] was “not”.
In the case of C[C@@H]1C[C@H]2[C@@H]3CCC4=CC(=O)C=C[C@]4(C)[C@@]3(F)[C@@H](O)C[C@]2(C)[C@@]1(O)C(=O)CO [Dexamethasone, dexamethasone], the “efficacy of Rof in suppressing NTHi-induced inflammation” value [2] is reported as “improves the efficacy of Rof” and the “PDE4B induction by NTHi and Rof” value [3] is reported as “suppresses”.
In the case of O=P1(O)OC[C@H]2O[C@@H](n3cnc4c(Nc5ccccc5)ncnc43)[C@@H](O)C2O1 (stereo partly shown) [6-Phe-cAMP, N^6-Phenyl-cAMP], the “NTHi-induced PDE4B2 expression (synergy with NTHi)” value ([4]; BEAS-2B cells) is reported as “synergistically enhanced”, the PDE4B2 expression ([4]; in IKKβ-CA- but not IKKα-CA-transfected BEAS-2B cells) is reported as “synergistically enhanced” and the “phosphorylation of p65 (induction)” value ([1]; roflumilast as co-treatment with NTHi) is reported as “induced this phosphorylation”.
CO[C@@H]1[C@@H]2OP(=O)(O)OC[C@H]2O[C@H]1n1c(Sc2ccc(Cl)cc2)nc2c(N)ncnc21 [8-pCPT-2′-O-Me-cAMP] was tested, and the “NTHi-induced PDE4B2 expression (synergy with NTHi)” value ([4]; BEAS-2B cells) was “did not markedly synergize”.
In the case of O=S(=O)(NCCNC/C=C/c1ccc(Br)cc1)c1cccc2cnccc12 [H89], the “phosphorylation … of PKA-Cβ1 (inhibition)” value [1] is reported as “inhibited”.
With Nc1ncnc2c1nc(Sc1ccc(Cl)cc1)n2[C@@H]1O[C@@H]2COP(O)(=S)O[C@H]2[C@H]1O (stereo partly shown) [Rp-8-CPT-cAMPS] the “phosphorylation of p65 induced by co-treatment of roflumilast with NTHi (inhibition)” value [1] was “inhibited”.
For NC(=O)Nc1sc(-c2ccc(F)cc2)cc1C(N)=O [IKKβ inhibitor], the “induction of PDE4B2 by roflumilast alone” value [4, 6] was “did not affect” and the “synergistic induction of PDE4B2 by NTHi and roflumilast” value [4, 6] was “significantly inhibited”.
C[S+]([O-])c1ccc(-c2nc(-c3ccncc3)c(-c3ccc(F)cc3)[nH]2)cc1 (stereo not shown) [SB203580] was tested, and the “phosphorylation … of PKA-Cβ1 (inhibition)” value [1] was “not”.
For Cc1c2oc3c(C)ccc(C(=O)N[C@@H]4C(=O)N[C@H](C(C)C)C(=O)N5CCC[C@H]5C(=O)N(C)CC(=O)N(C)[C@@H](C(C)C)C(=O)O[C@@H]4C)c3nc-2c(C(=O)N[C@@H]2C(=O)N[C@H](C(C)C)C(=O)N3CCC[C@H]3C(=O)N(C)CC(=O)N(C)[C@@H](C(C)C)C(=O)O[C@@H]2C)c(N)c1=O [ActD, actinomycin D] (I: T[dV]P[Sar][NMeV] / II: T[dV]P[Sar][NMeV]; ester I:1-I:C, II:1-II:C; linker I:N-II:N via Actinocin(9to1)), the “PDE4B induction by NTHi and roflumilast” value [5] was “completely abrogated”.
